Assays:
[1] = molecular target: T1, VCP/mtHtt interaction (Homo sapiens, UniProt P55072); experiment: Co-immunoprecipitation of GFP-VCP and Myc-73Q FL (mtHtt) in HEK293 cells; format: cell-based; details: HEK293, Myc-73Q FL + GFP-VCP, 48 h
T1 construct: The full-length VCP wt and GFP-LC3B plasmids were obtained from Addgene; expressed in transfected cells; host or cells: HEK293
Procedure: (b) Stick drawings of VCP and Htt main domains. […] Immunoprecipitates were analysed by WB with the indicated antibodies. […] VCP mitochondrial levels were determined by WB. Loading control: VDAC. Data are mean±s.e.m. (g–i) ANOVA with Holm-Sidak post hoc test.
Myc-tagged full-length Htt with 23Q or 73Q plasmid was obtained from the CHDI foundation. The full-length VCP wt and GFP-LC3B plasmids were obtained from Addgene. To construct the mitochondria-targeting VCP plasmid, CMV-mito-GEM-GECO1 was digested with BamHI and HindIII, and VCP was PCR-amplified and inserted into the plasmid backbone. Site mutation of the VCP plasmid was performed using a site-mutagenesis kit (Agilent Technologies, Inc.). Cells were transfected with TransIT-2020 (Mirus Bio, LLC) following the manufacturer's protocol.
Human cervix carcinoma cells (HeLa cells) and HEK293 cells were maintained in DMEM supplemented with 10% FBS and 1% (v/v) penicillin/streptomycin.
Supplementary Figure 4: Rational design of a peptide inhibitor to block VCP/Htt interaction. […] Quantitation of VCP/Htt binding was shown below the blot as the m ean of three independent experiments. […] The blots of the bindings of mtHtt/VCP were quantitated with NIH Image J software. The IC50 was calculated. […]

[2] = molecular target: T2, full-length mouse VCP/p97 (Mus musculus, UniProt Q01853); experiment: Isothermal titration calorimetry (ITC); format: binding; details: 15 °C
T2 construct: The full-length mouse VCP/p97 (residues 2–806) was expressed with an N-terminal 6xHis-tag; 6xHis (N); host or cells: Escherichia coli Rosetta (DE3)
T2 sequence (Q01853 2-806): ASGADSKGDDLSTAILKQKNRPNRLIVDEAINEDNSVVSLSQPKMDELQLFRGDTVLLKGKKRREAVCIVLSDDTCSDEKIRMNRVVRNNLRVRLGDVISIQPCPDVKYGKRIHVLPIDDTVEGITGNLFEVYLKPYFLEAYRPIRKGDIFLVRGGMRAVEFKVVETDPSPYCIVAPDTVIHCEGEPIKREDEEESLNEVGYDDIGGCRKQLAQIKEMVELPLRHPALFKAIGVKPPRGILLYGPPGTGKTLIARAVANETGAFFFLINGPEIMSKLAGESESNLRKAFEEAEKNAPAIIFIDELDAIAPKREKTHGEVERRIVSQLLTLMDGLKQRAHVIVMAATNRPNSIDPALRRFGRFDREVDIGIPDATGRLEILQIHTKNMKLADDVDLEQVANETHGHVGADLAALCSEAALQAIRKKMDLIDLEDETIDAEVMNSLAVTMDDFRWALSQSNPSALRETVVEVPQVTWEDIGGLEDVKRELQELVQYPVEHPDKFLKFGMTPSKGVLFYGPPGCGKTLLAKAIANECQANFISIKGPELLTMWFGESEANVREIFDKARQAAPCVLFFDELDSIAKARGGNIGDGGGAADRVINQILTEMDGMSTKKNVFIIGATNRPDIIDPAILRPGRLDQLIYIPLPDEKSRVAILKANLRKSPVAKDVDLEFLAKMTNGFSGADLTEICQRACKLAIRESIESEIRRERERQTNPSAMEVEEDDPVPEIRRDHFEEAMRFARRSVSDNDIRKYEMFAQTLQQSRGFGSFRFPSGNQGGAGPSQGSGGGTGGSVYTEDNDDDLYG
Procedure: The full-length mouse VCP/p97 (residues 2–806) was expressed with an N-terminal 6xHis-tag (Addgene: plasmid # 12373) in the Rosetta (DE3) strain of Escherichia coli (Novagen) as previously described. Briefly, the cells were grown in LB media supplemented with Kanamycin and induced at OD∼1.0 for 16 h at 18 °C. Cells were homogenized in Buffer A (500 mM KCl, 25 mM Hepes pH 8.0, and 2 mM β-mercaptoethanol) in the presence of EDTA-free Complete Protease Inhibitor (Roche) and 2 mM PMSF. The lysate was cleared by centrifugation at 45,000 g for 1 h at 4 °C. Supernatant was incubated with 2 ml of Ni-NTA agarose resin (Qiagen) for 2 h at 4 °C. The resin was washed with Buffer A containing 50 mM imidazole and eluted with Buffer A containing 400 mM imidazole. VCP protein was further purified by passing through Superdex 200 increase 10/300 GL (GE Healthcare) size exclusion column equilibrated with Buffer B (250 mM KCL, 25 mM Hepes pH 8.0, 2 mM β-mercaptoethanol and 1 mM MgCl2). The fractions containing the pure sample, as determined by SDS–PAGE analysis, were pooled and concentrated to a final concentration of ∼3–5 mg ml^−1.
Binding of HV-3 peptide to VCP was measured by isothermal titration calorimetry on a MicroCal ITC200 (GE Healthcare). Before the calorimetric titrations, the protein was exchanged into Buffer C (100 mM NaCl, 10 mM Hepes, pH 8.0) on a PD-10 column (Amersham Biosciences) and concentrated to ∼5–6 mg ml^−1. The final concentration of protein in the cell (∼60–70 μM) was determined on a NanoDrop Spectrophotometer (Thermo Scientific NanoDrop 2000) using a molecular weight of 89.32 KDa and a molar extinction coefficient of […]. The HV-3 peptide was dissolved in Buffer C to a final concentration of 2 mM and loaded into the syringe. The measurements were made at a constant cell temperature of 15 °C and repeated at least three times. Thirty successive injections of 1.2 μl each were titrated into the cell with constant stirring at 1,000 r.p.m. An equilibration time of 150 s was set between consecutive injections. The binding isotherms were analysed with the MicroCal Origin software. For measurements of heat of dilution, the protein sample in the cell was replaced by Buffer C and all other conditions were kept identical.

With `CSCC[C@H](NC(=O)[C@@H](NC(=O)[C@H](CC(C)C)NC(=O)[C@@H](NC(=O)[C@H](Cc1c[nH]cn1)NC(=O)CCCCCNC(=O)[C@H](CCCNC(=N)N)NC(=O)[C@H](CCCNC(=N)N)NC(=O)[C@H](CCCNC(=N)N)NC(=O)[C@H](CCC(N)=O)NC(=O)[C@H](CCCNC(=N)N)NC(=O)[C@H](CCCNC(=N)N)NC(=O)[C@H](CCCCN)NC(=O)[C@H](CCCCN)NC(=O)[C@H](CCCNC(=N)N)NC(=O)CNC(=O)[C@@H](N)Cc1ccc(O)cc1)C(C)C)C(C)C)C(=O)N[C@@H](CS)C(=O)N[C@@H](C)C(=O)N[C@H](C(N)=O)[C@@H](C)O` [HV-3] the IC50 ([1]; 0 to 4 µM, IP/WB quantitated, read-out: IC50 blocking VCP/mtHtt interaction) was 2.11 µM, the “block of VCP/mtHtt interaction” value ([1]; 3 µM/day, n = 3) was “only HV-3 peptide significantly blocked the VCP/mtHtt interaction” and the Kd ([2]; 100 mM NaCl, 10 mM Hepes pH 8.0, protein ∼60–70 μM, HV-3 2 mM in syringe, repeated at least three times) was 17.9 ± 7 µM. For the same compound, the “n (stoichiometry)” value ([2]; pH 8.0) was 2.02±0.23, the ΔH ([2]; pH 8.0) was -2.145 ± 0.65 kcal/mol and the ΔS ([2]; pH 8.0) was 13.97±3.4 cal mol^−1 deg^−1.
